This passage reports IC50 results from patent publication US9751887B2, “Imidazo[1,2-b]pyridazine derivatives as kinase inhibitors” (Daiichi Sankyo Company, Limited, priority 2012, dated 2017).

Where two headings read alike, the source gives them in different places. Where only a bound is given, the exact number is not on record here.

Assay [1] addresses T1, ROS1 (Homo sapiens, UniProt P08922).
T1 construct: purchased Carna Biosciences 08-163
The experiment in a line: ROS1 kinase inhibitory activity evaluation (mobility shift, EZ Reader II). In kind it is biochemical. The settings on record: ROS1 25 pg/μL, FL-Peptide 22 substrate, three separate measurements. How it is done: Next, a substrate reaction solution was prepared. […] Then, the reaction stop solution was added thereto at a concentration of 40 μL/well. Substrate phosphorylation intensity was measured using EZ Reader II (Caliper Life Sciences).

Assay [2] relates to HCC78 cells having ROS1 fusion gene. The experiment in a line: HCC78 cell growth assay (CellTiter-Glo). The settings on record: Homo sapiens, 72 hours culture, 2% FBS medium, luminescence, four separate measurements, read-out: growth inhibitory effect on HCC78 cells having ROS1 fusion gene IC50. The class given is cell-based. (In general: ATP-based viability assays read luminescence as a measure of living cells.)

Assay [3] addresses T1, ROS1. The experiment in a line: ROS1 autophosphorylation inhibitory activity evaluation (ADP-Glo). The class given is biochemical. As to conditions: 200 nM inactive ROS1, ATP 1 mM, 25° C. 1.5 hours, ADP generated, four separate measurements. In short, it runs like this: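 IC50 was derived by curve fitting of ADP output measured with ADP-Glo reagents. The output reflects ROS1 self-phosphorylation over 1.5 hours at 25° C. Buffer was HEPES pH 7.5 with MgCl2, Brij-58 and DTT, and ATP was 1 mM final.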
On the technique in general: ADP-Glo first removes unused ATP, then detects ADP through luciferase.

T1 sequence (P08922 28-2347): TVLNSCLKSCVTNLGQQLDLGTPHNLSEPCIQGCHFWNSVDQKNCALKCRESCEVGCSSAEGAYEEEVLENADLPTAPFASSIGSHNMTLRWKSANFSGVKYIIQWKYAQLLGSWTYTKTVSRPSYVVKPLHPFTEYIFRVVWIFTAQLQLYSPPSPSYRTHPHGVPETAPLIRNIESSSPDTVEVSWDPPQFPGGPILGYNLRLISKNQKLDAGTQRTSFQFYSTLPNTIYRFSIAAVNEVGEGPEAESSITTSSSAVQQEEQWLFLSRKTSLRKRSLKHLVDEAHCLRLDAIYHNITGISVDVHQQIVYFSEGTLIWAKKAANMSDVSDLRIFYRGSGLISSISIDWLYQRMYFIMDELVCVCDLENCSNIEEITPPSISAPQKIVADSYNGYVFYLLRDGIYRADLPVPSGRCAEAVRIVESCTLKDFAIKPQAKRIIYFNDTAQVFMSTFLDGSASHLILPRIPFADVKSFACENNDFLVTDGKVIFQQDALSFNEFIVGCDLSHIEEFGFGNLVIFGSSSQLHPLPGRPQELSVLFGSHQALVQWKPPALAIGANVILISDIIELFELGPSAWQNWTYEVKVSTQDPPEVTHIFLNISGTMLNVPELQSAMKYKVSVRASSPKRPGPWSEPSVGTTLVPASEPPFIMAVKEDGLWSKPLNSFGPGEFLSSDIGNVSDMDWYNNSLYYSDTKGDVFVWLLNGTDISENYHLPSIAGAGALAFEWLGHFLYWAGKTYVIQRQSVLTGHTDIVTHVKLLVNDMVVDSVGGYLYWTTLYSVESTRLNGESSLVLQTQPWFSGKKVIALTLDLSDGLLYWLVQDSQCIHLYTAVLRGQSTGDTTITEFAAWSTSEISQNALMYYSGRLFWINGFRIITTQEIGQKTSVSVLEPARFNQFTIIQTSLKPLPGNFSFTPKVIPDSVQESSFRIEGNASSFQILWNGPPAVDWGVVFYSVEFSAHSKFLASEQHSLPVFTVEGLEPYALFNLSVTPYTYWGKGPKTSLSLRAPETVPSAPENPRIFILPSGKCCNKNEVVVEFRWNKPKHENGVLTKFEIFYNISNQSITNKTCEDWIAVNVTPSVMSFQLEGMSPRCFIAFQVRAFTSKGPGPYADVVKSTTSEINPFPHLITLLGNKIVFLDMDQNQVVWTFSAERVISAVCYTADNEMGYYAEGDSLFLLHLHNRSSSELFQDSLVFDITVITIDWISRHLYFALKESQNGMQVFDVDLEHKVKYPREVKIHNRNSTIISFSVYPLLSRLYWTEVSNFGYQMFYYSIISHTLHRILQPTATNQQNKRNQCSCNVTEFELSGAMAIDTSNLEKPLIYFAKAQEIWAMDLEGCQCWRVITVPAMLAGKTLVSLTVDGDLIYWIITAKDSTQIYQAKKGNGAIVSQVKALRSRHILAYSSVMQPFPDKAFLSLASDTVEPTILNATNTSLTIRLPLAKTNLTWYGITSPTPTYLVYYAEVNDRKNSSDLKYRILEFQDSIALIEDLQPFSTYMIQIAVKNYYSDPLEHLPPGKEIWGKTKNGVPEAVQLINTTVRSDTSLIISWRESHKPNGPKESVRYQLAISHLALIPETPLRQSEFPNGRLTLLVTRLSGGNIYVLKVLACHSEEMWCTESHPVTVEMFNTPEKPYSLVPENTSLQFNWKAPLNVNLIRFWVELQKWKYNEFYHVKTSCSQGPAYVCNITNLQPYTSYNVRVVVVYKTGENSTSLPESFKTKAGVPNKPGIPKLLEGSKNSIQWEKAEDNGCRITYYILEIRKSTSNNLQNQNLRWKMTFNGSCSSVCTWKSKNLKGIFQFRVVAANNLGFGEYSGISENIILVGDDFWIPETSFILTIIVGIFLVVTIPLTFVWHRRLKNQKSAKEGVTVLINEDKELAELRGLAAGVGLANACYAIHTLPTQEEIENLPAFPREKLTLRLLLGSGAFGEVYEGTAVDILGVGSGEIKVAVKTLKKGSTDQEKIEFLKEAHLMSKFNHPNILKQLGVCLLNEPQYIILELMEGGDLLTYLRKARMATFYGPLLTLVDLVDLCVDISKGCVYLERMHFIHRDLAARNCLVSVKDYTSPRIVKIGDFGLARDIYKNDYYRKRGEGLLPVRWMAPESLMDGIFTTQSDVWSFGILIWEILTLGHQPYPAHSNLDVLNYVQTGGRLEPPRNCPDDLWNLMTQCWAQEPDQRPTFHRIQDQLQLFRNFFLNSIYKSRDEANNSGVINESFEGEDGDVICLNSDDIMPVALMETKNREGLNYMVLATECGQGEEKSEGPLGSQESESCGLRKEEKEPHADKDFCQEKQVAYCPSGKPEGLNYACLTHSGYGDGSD

With `CCN(Cc1ccccc1)c1ccc2ncc(-c3ccc(N4C[C@@H](N)CC4=O)cc3)n2n1` [Example 95, (4S)-4-Amino-1-[4-[6-[benzo(ethyl)amino]imidazo[1,2-b]pyridazin-3-yl]phenyl]pyrrolidin-2-one], the IC50 in assay [1] lay within 1 to 10 nM; in assay [2] (HCC78, 72 h), 100 to 600 nM; in assay [3], 20 to 100 nM.

`CN(Cc1cc(F)ccc1F)c1ccc2ncc(-c3ccc(N4C[C@@H](N)CC4=O)cc3)n2n1` [Example 97, (4S)-4-Amino-1-[4-[6-[(2,5-difluorophenyl)methyl-methylamino]imidazo[1,2-b]pyridazin-3-yl]phenyl]pyrrolidin-2-one]: the 50% inhibitory concentration (IC50) in assay [1] was 1 to 10 nM; in assay [2] (HCC78, 72 h), less than 20 nM; in assay [3] it was 20 to 100 nM.

For `CN(Cc1cccc(F)c1F)c1ccc2ncc(-c3ccc(N4C[C@@H](N)CC4=O)cc3)n2n1` [Example 98, (4S)-4-Amino-1-[4-[6-[(2,3-difluorophenyl)methyl-methylamino]imidazo[1,2-b]pyridazin-3-yl]phenyl]pyrrolidin-2-one], the IC50 in assay [1] is 1 to 10 nM; in assay [2] (HCC78, 72 h) it was 20 to 100 nM; in assay [3], less than 20 nM.

For the molecule `CN(Cc1cc(F)ccc1Cl)c1ccc2ncc(-c3ccc(N4C[C@@H](N)CC4=O)cc3)n2n1` [Example 99, (4S)-4-Amino-1-[4-[6-[(2-chloro-5-fluorophenyl)methyl-methylamino]imidazo[1,2-b]pyridazin-3-yl]phenyl]pyrrolidin-2-one], the IC50 in assay [1] lay in the range of 1 to 10 nM; in assay [2] (HCC78, 72 h), 20 to 100 nM; in assay [3], 20 to 100 nM.

For the molecule `CCN(Cc1cccc(F)c1)c1ccc2ncc(-c3ccc(N4C[C@@H](N)CC4=O)cc3)n2n1` [Example 100], the IC50 in assay [1] was 1 to 10 nM; in assay [2] (HCC78, 72 h), 20 to 100 nM; in assay [3], less than 20 nM.

Regarding `N#Cc1cccc(COc2ccc3ncc(-c4ccc(N5C[C@@H](N)CC5=O)cc4)n3n2)c1` [Example 101, 3-[[3-[4-[(4S)-4-Amino-2-oxopyrrolidin-1-yl]phenyl]imidazo[1,2-b]pyridazin-6-yl]oxymethyl]benzonitrile], the IC50 lay within 1 to 10 nM in assay [1]; 100 to 600 nM in assay [2] (HCC78, 72 h); 20 to 100 nM in assay [3].

Take `CC(Oc1ccc2ncc(-c3ccc(N4C[C@@H](N)CC4=O)cc3)n2n1)c1cccc(F)c1F` (stereo partly drawn) [Example 102, (4S)-4-Amino-1-[4-[6-[1-(2,3-difluorophenyl)ethoxy]imidazo[1,2-b]pyridazin-3-yl]phenyl]pyrrolidin-2-one]: the 50% inhibitory concentration (IC50) is 1 to 10 nM in assay [1]; 100 to 600 nM in assay [2] (HCC78, 72 h); less than 20 nM in assay [3].

Regarding `Cc1ccc(F)cc1COc1ccc2ncc(-c3ccc(N4C[C@@H](N)CC4=O)cc3)n2n1` [Example 103, (4S)-4-Amino-1-[4-[6-[(5-fluoro-2-methylphenyl)methoxy]imidazo[1,2-b]pyriazin-3-yl]phenyl]pyrrolidin-2-one], the IC50 was 1 to 10 nM in assay [1]; 20 to 100 nM in assay [2] (HCC78, 72 h); 20 to 100 nM in assay [3].

On to `CC(Oc1ccc2ncc(-c3ccc(N4C[C@@H](N)CC4=O)cc3)n2n1)c1cc(F)ccc1F` (stereo partly drawn) [Example 104, (4S)-4-Amino-1-[4-[6-[1-(2,5-difluorophenyl)ethoxy]imidazo[1,2-b]pyridazin-3-yl]phenyl]pyrrolidin-2-one], for which the 50% inhibitory concentration (IC50) was less than 1 nM in assay [1]; 20 to 100 nM in assay [2] (HCC78, 72 h); less than 20 nM in assay [3].

Regarding `CC(Oc1ccc2ncc(-c3ccc(N4C[C@@H](N)CC4=O)cc3)n2n1)c1nccs1` (stereo partly drawn) [Example 105, (4S)-4-Amino-1-[4-[6-(1-thiazol-2-ylethoxy)imidazo[1,2-b]pyridazin-3-yl]phenyl]pyrrolidin-2-one], the IC50 in assay [1] fell in the range of 10 to 60 nM; in assay [2] (HCC78, 72 h), 100 to 600 nM; in assay [3], 20 to 100 nM.

For `CC(Oc1ccc2ncc(-c3ccc(N4C[C@@H](N)CC4=O)cc3)n2n1)c1cc(F)cnc1F` (stereo partly drawn) [Example 106], the IC50 is less than 1 nM in assay [1]; less than 20 nM in assay [2] (HCC78, 72 h); less than 20 nM in assay [3].

Take `CC(Oc1ccc2ncc(-c3ccc(N4C[C@@H](N)CC4=O)cc3)n2n1)c1cncc(F)c1` (stereo partly drawn) [Example 107]: the half-maximal inhibitory concentration (IC50) was less than 1 nM in assay [1]; less than 20 nM in assay [2] (HCC78, 72 h); less than 20 nM in assay [3].

For the molecule `CN[C@H]1CC(=O)N(c2ccc(-c3cnc4ccc(O[C@H](C)c5cncc(F)c5)nn34)cc2)C1` [Example 108, (4S)-1-[4-[6-[(1R)-1-(5-Fluoro-3-pyridyl)ethoxy]imidazo[1,2-b]pyridazin-3-yl]phenyl]-4-(methylamino)pyrrolidin-2-one], the 50% inhibitory concentration (IC50) lay within 1 to 10 nM in assay [1]; 20 to 100 nM in assay [2] (HCC78, 72 h); 20 to 100 nM in assay [3].

In the case of `C[C@@H](Oc1ccc2ncc(-c3ccc(N4C[C@@H](N)CC4=O)c(F)c3)n2n1)c1cncc(F)c1` [Example 109, (4S)-4-Amino-1-[2-fluoro-4-[6-[(1R)-1-(5-fluoro-3-pyridyl)ethoxy]imidazo[1,2-b]pyridazin-3-yl]phenyl]pyrrolidin-2-one], the IC50 fell in the range of 10 to 60 nM in assay [1]; 20 to 100 nM in assay [2] (HCC78, 72 h); 100 to 150 nM in assay [3].

Consider `C[C@@H](Oc1ccc2ncc(-c3ccc(N4C[C@@H](N)CC4=O)cc3F)n2n1)c1cncc(F)c1` [Example 110, (4S)-4-Amino-1-[3-fluoro-4-[6-[(1R)-1-(5-fluoro-3-pyridyl)ethoxy]imidazo[1,2-b]pyridazin-3-yl]phenyl]pyrrolidin-2-one], for which the 50% inhibitory concentration (IC50) in assay [1] was 1 to 10 nM; in assay [2] (HCC78, 72 h) it was 20 to 100 nM; in assay [3] it was less than 20 nM.

`Cc1cc(-c2cnc3ccc(OC(C)c4cncc(F)c4)nn23)ccc1N1C[C@@H](N)CC1=O` (stereo partly drawn) [Example 111]: the half-inhibitory concentration (IC50) is 1 to 10 nM in assay [1]; 20 to 100 nM in assay [2] (HCC78, 72 h); 20 to 100 nM in assay [3].

Regarding `CC(Oc1ccc2ncc(-c3ccc(N4C[C@@H](N)CC4=O)cc3)n2n1)c1cncc(Cl)c1` (stereo partly drawn) [Example 112], the IC50 in assay [1] is 1 to 10 nM; in assay [2] (HCC78, 72 h), 20 to 100 nM; in assay [3] it was less than 20 nM.

`CC(Oc1ccc2ncc(-c3ccc(N4C[C@@H](N)CC4=O)cc3)n2n1)c1cc(Cl)n(C)n1` (stereo partly drawn) [Example 113, (4S)-4-Amino-1-[4-[6-[1-(5-chloro-1-methylpyrazol-3-yl)ethoxy]imidazo[1,2-b]pyridazin-3-yl]phenyl]pyrrolidin-2-one]: the half-inhibitory concentration (IC50) in assay [1] was 1 to 10 nM; in assay [2] (HCC78, 72 h), less than 20 nM; in assay [3] it was less than 20 nM.

As to `CC(Oc1ccc2ncc(-c3ccc(N4C[C@@H](N)CC4=O)cc3)n2n1)c1cc(F)ccc1-n1nccn1` (stereo partly drawn) [Example 114, (4S)-4-Amino-1-[4-[6-[1-[5-fluoro-2-(triazol-2-yl)phenyl]ethoxy]imidazo[1,2-b]pyridazin-3-yl]phenyl]pyrrolidin-2-one], the half-maximal inhibitory concentration (IC50) in assay [1] was less than 1 nM; in assay [2] (HCC78, 72 h) it was 20 to 100 nM; in assay [3], less than 20 nM.

On to `CC(Oc1ccc2ncc(-c3ccc(N4C[C@@H](N)CC4=O)cc3)n2n1)c1cn(C(F)F)nn1` (stereo partly drawn) [Example 115, (4S)-4-Amino-1-[4-[6-[1-[1-(difluoromethyl)triazol-4-yl]ethoxy]imidazo[1,2-b]pyridazin-3-yl]phenyl]pyrrolidin-2-one], for which the concentration for half-maximal inhibition (IC50) in assay [1] lay within 10 to 60 nM; in assay [2] (HCC78, 72 h), 100 to 600 nM; in assay [3], 100 to 150 nM.

`CC(Oc1ccc2ncc(-c3ccc(N4C[C@@H](N)CC4=O)cc3)n2n1)c1cc(C#N)n(C)n1` (stereo partly drawn) [Example 116, 5-[1-[3-[4-[(4S)-4-Amino-2-oxopyrrolidin-1-yl]phenyl]imidazo[1,2-b]pyridazin-6-yl]oxyethyl]-2-methylpyrazole-3-carbonitrile]: the 50% inhibitory concentration (IC50) in assay [1] is 10 to 60 nM; in assay [2] (HCC78, 72 h) it was 100 to 600 nM; in assay [3], 100 to 150 nM.

With `CN(Cc1cccnc1)c1ccc2ncc(-c3ccc(N4C[C@@H](N)CC4=O)cc3)n2n1` [Example 117, (4S)-4-Amino-1-[4-[6-[methyl(3-pyridylmethyl)amino]imidazo[1,2-b]pyridazin-3-yl]phenyl]pyrrolidin-2-one], the IC50 in assay [1] was 1 to 10 nM; in assay [2] (HCC78), 20 to 100 nM; in assay [3] it was 20 to 100 nM.

For the molecule `CN(Cc1cncc(F)c1)c1ccc2ncc(-c3ccc(N4C[C@@H](N)CC4=O)cc3)n2n1` [Example 118, (4S)-4-Amino-1-[4-[6-[(5-fluoro-3-pyridyl)methyl-methylamino]imidazo[1,2-b]pyridazin-3-yl]phenyl]pyrrolidin-2-one], the IC50 is 1 to 10 nM in assay [1]; less than 20 nM in assay [2] (HCC78, 72 h); less than 20 nM in assay [3].

Regarding `CN(Cc1cncc(F)c1)c1ccc2ncc(-c3ccc(N4CC(C)(N)CC4=O)cc3)n2n1` (stereo not drawn) [Example 119, 4-Amino-1-[4-[6-[(5-fluoro-3-pyridyl)methyl-methylamino]imidazo[1,2-b]pyridazin-3-yl]phenyl]-4-methylpyrrolidin-2-one], the IC50 is 1 to 10 nM in assay [1]; less than 20 nM in assay [2] (HCC78, 72 h); less than 20 nM in assay [3].

For `CN(Cc1cc(F)cc(F)c1)c1ccc2ncc(-c3ccc(N4C[C@@H](N)CC4=O)cc3)n2n1` [Example 120, (4S)-4-Amino-1-[4-[6-[(3,5-difluorophenyl)methyl-methylamino]imidazo[1,2-b]pyridazin-3-yl]phenyl]pyrrolidin-2-one], the IC50 in assay [1] was less than 1 nM; in assay [2] (HCC78, 72 h) it was less than 20 nM; in assay [3] it was less than 20 nM.

Turning to `CN(Cc1cccc(C#N)c1)c1ccc2ncc(-c3ccc(N4C[C@@H](N)CC4=O)cc3)n2n1` [Example 121, 3-[[[3-[4-[(4S)-4-Amino-2-oxopyrrolidin-1-yl]phenyl]imidazo[1,2-b]pyridazin-6-yl]-methylamino]methyl]benzonitrile], the IC50 lay within 1 to 10 nM in assay [1]; 20 to 100 nM in assay [2] (HCC78, 72 h); 20 to 100 nM in assay [3].

A word on the IC50: it is the midpoint of a concentration-inhibition curve.
